The values that follow come from ChEMBL document CHEMBL5385887, “Discovery of Sibiriline derivatives as novel receptor-interacting protein kinase 1 inhibitors” (Eur J Med Chem, 2023).

The source made the active and inactive calls. The calls are words filed in the database; no cut-off is given here.

The subject of series [1] is L929. As to the kind of experiment: Anti-necroptosis activity against TNFalpha/z-VAD-fmk-induced mouse L929 cell necroptosis model assessed as cell viability pretreated with compound for 1 hr followed by treated with TZ for 6 hrs. The class given is functional, cell-based.
Series [2] deals with T1, Receptor-interacting serine/threonine-protein kinase 1 (Homo sapiens, UniProt Q13546).
T1 sequence (Q13546 whole entry): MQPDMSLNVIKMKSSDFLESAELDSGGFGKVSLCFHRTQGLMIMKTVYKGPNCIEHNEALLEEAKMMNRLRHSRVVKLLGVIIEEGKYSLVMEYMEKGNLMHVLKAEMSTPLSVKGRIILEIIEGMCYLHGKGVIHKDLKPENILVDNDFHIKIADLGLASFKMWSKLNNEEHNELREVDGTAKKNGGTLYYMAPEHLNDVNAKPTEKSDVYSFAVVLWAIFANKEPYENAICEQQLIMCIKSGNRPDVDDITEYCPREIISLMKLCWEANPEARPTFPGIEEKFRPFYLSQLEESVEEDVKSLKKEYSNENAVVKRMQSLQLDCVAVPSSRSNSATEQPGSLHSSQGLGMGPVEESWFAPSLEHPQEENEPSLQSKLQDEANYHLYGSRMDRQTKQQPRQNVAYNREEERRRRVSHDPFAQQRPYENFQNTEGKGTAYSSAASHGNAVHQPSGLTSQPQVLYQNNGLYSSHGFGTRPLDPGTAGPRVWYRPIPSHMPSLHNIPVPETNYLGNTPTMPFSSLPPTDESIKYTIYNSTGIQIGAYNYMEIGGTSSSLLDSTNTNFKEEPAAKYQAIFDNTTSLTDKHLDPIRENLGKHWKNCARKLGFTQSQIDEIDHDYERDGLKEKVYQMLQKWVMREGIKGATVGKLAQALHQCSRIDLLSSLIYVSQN
As to the kind of experiment: Inhibition of RIPK1 (unknown origin) using MBP substrate incubated for 2 hrs by ADP-Glo kinase function assay.

Series [3] is described as follows: Cytotoxicity against mouse L929 cells by CCK-8 assay. The class given is toxicity, cell-based.
Series [4] deals with L929. The series can be described thus: Anti-necroptosis activity against TNFalpha/z-VAD-fmk-induced mouse L929 cell necroptosis model assessed as prevention of necroptosis pretreated with compound for 1 hr followed by treated with TZ for 6 hrs by Hoechst 33342/PI staining based flow cytometric analysis. The class given is functional. Particulars: dose 10-250 nmol/L, time 7.0 hrs.

Series [5] deals with L929. As to the kind of experiment: Anti-necroptosis activity against TNFalpha/z-VAD-fmk-induced mouse L929 cell necroptosis model assessed as increase in viable cells pretreated with compound for 1 hr followed by treated with TZ for 6 hrs by Hoechst 33342/PI staining based flow cytometric analysis. Particulars: time 7.0 hrs. The class given is functional.
In series [6] the test system is HT-29. As to the kind of experiment: Anti-necroptosis activity against TSZ-induced human HT-29 cell necroptosis model assessed as cell viability pretreated with compound for 1 hr followed by treated with TSZ for 12 hrs. The class given is functional, cell-based. Particulars: dose 0.039-10 µM, time 13.0 hrs.
The next series has as its system U-937. The series can be described thus: Anti-necroptosis activity against TSZ-induced human U937 cell necroptosis model assessed as cell viability pretreated with compound for 1 hr followed by treated with TSZ for 12 hrs. The class given is functional, cell-based. The settings on record: dose 0.039-10 µM, time 13.0 hrs.
Series [7] deals with HT-29. As to the kind of experiment: Anti-necroptosis activity against TS-induced human HT-29 cell necroptosis model assessed as cell viability at 0.039 to 10 uM pretreated with compound for 1 hr followed by treated with TS for 12 hrs. The class given is functional, cell-based. The settings on record: dose 0.039-10 µM.
Series [8] has as its target T2, Receptor-interacting serine/threonine-protein kinase 1 (Mus musculus) (UniProt Q60855).
T2 sequence (whole entry): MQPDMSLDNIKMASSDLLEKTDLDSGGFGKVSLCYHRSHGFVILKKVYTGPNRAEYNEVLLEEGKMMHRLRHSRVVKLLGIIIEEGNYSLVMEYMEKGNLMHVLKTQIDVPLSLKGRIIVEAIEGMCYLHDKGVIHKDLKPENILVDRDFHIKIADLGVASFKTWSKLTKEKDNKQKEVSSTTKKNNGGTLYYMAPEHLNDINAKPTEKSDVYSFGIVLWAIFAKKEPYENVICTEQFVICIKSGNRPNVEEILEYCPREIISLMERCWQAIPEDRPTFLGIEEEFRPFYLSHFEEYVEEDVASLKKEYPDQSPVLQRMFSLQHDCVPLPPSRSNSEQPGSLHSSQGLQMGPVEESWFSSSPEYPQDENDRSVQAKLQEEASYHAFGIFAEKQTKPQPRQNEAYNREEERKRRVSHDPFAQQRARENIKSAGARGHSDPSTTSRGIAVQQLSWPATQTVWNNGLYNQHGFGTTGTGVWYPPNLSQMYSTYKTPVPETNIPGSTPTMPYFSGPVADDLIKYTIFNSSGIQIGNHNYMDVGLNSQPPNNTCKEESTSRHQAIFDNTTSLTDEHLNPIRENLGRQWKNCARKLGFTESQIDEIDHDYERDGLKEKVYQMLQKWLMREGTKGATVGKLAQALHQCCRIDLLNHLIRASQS
As to the kind of experiment: Inhibition of RIPK1 phosphorylation in mouse L929 cells at 250 nM by Western blotting analysis. The class given is cell-based. The settings on record: time 0.5-2.5 hrs, TDE = time-dependent effect.

Series [9] concerns the target Receptor-interacting serine/threonine-protein kinase 3 (Mus musculus) (UniProt Q9QZL0). As to the kind of experiment: Inhibition of RIPK3 phosphorylation in mouse L929 cells at 250 nM by Western blotting analysis. The settings on record: time 0.5-2.5 hrs, TDE = time-dependent effect. The class given is cell-based.
Series [10] has as its target T3, Mixed lineage kinase domain-like protein (Mus musculus) (UniProt Q9D2Y4).
T3 sequence (whole entry): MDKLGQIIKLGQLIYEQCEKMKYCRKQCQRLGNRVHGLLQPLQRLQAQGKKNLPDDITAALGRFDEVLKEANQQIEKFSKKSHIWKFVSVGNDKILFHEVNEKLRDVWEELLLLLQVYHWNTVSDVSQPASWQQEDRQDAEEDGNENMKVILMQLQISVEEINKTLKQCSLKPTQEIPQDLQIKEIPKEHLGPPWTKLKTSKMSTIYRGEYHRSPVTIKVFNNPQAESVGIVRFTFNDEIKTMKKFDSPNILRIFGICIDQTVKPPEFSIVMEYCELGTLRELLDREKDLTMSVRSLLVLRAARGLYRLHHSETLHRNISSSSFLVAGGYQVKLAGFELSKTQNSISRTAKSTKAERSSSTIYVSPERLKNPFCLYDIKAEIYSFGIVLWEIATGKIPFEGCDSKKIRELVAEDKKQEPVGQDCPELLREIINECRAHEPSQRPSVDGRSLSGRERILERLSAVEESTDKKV
As to the kind of experiment: Inhibition of MLKL phosphorylation in mouse L929 cells at 250 nM incubated for 0.5 to 2.5 hrs by Western blotting analysis. Particulars: time 0.5-2.5 hrs. The class given is cell-based.

In series [11] the test system is Mus musculus. As to the kind of experiment: In vivo anti-necroptotic effect in TNFalpha-induced systemic inflammatory response syndrome C57BL/6J mouse model assessed as reduction in hypothermic injury at 10 to 40 mg/kg, ip followed by compound treatment after 1 hr injected moue TNFalpha and measured continuously upto 72 hrs. The class given is functional, organism-based. The settings on record: dose 10-40 mg/kg, time 73.0 hrs.

Series [12] deals with Mus musculus. The series can be described thus: In vivo anti-necroptotic effect in TNFalpha-induced systemic inflammatory response syndrome C57BL/6J mouse model assessed as reduction in hypothermic injury by measuring increase in survival at 25 mg/kg, ip followed by compound treatment after 1 hr injected moue TNFalpha and measured continuously upto 72 hrs. The class given is functional. Particulars: time 73 hrs.

Series [13] concerns Mus musculus. As to the kind of experiment: In vivo anti-necroptotic effect in TNFalpha-induced systemic inflammatory response syndrome C57BL/6J mouse model assessed as reduction in hypothermic injury by measuring increase in survival at 40 mg/kg, ip followed by compound treatment after 1 hr injected moue TNFalpha and measured continuously upto 72 hrs. The class given is functional. Particulars: time 73 hrs.

Series [14] relates to Mus musculus. As to the kind of experiment: In vivo anti-necroptotic effect in TNFalpha-induced systemic inflammatory response syndrome C57BL/6J mouse model assessed as reduction in hypothermic injury by measuring increase in survival at 10 mg/kg, ip followed by compound treatment after 1 hr injected moue TNFalpha and measured continuously upto 72 hrs. The class given is functional. Particulars: time 73 hrs.

Receptor-interacting serine/threonine-protein kinase 3 (Mus musculus), sequence (Q9QZL0 whole entry, the tested form may be a part): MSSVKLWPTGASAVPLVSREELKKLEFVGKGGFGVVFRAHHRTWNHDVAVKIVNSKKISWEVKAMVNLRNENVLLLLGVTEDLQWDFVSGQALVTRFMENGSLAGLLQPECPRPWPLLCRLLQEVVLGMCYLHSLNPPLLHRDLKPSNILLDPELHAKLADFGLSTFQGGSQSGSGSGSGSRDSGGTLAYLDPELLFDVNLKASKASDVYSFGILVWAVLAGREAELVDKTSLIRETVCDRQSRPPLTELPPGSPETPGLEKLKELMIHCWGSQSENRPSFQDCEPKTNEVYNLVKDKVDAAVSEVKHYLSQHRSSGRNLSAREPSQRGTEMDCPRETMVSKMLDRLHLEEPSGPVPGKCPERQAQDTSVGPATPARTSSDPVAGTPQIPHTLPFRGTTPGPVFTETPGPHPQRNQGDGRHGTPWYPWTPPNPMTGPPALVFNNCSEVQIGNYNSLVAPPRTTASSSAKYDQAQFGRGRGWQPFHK

Regarding `O=C(c1ccc(-c2cc3cccnc3[nH]2)cc1)N1CCOCC1`, the EC50 with L929 [1] was 56 nM. The compound also gave an IC50 in series [2] of 88 nM. The compound further yielded a CC50 in series [3] of over 50 µM. Further, the Activity result with L929 [4], in the series on HT-29 [6] and with U-937 was “Dose-Dependent Effect” each time. In addition, the result in the series on L929 [5] and in the series with Mus musculus [11] was Active. For the same compound, the result with HT-29 [7] was inactive. Besides, the inhibition result in series [8] and in series [9] was “Tde” each time. The inhibition entry in series [10] is “Active”. Besides, the survival at 25 mg/kg with Mus musculus [12] was 100%. The survival at 40 mg/kg in the series on Mus musculus [13] stood at 100%. Further, the survival at 10 mg/kg in the series with Mus musculus [14] stood at 75%.
